# Source: US11053213B2, “Pharmaceutical compounds” (ALMAC DISCOVERY LIMITED, priority 2016, dated 2021)
# pIC50: −log10 of the molar value.
# Biological target: USP19 (Homo sapiens (Human), UniProt O94966)
# Assay: USP19 activity assay (fluorescence polarisation, Ubiquitin-Lys-TAMRA substrate)
# Format: biochemical
# Settings: full-length USP19 2.5 nM, 30 min pre-incubation, Ub substrate 500 nM; average of at least two duplicate experiments
# USP19, sequence (O94966 whole entry): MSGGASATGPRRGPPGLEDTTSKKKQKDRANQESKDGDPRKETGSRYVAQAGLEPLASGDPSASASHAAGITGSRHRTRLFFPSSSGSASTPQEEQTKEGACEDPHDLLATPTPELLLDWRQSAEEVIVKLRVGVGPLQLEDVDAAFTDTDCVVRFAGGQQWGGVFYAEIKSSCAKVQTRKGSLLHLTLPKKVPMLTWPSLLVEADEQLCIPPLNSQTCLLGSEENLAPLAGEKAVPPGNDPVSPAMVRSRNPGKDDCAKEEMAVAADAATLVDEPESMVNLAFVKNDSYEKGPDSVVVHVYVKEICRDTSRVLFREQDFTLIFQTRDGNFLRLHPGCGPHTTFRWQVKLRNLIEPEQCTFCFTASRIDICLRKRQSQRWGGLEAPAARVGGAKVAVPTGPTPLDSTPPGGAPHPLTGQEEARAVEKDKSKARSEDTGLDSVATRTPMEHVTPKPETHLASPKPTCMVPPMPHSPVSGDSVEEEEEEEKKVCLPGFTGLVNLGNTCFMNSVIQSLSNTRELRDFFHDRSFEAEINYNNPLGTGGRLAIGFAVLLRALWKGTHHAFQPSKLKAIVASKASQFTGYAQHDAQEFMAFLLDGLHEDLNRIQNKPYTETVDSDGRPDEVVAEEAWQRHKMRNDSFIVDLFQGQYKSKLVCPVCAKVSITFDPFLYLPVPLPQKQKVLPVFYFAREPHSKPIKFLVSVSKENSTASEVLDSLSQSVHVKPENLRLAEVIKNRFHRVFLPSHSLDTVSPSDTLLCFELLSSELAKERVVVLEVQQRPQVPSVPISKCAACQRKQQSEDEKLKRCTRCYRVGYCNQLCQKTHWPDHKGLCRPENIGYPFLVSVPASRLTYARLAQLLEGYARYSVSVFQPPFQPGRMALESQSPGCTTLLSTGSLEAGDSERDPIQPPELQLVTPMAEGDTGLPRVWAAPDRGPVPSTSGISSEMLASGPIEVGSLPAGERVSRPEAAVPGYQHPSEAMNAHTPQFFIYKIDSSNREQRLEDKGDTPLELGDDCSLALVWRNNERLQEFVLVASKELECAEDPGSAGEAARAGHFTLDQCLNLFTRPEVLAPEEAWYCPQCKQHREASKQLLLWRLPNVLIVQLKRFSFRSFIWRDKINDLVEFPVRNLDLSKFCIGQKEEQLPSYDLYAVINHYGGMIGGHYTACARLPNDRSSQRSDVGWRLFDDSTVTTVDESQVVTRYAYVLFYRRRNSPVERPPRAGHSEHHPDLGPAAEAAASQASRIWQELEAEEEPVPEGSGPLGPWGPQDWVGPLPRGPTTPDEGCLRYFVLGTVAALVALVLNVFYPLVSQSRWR
row,Compound,pIC50
1,"CN(C)C(=O)c1cn(CC2(O)CCN(C(=O)C3CCC(C(F)(F)F)C3)CC23CCCC3)c(=O)cc1-c1ccccc1 (centres unmarked) [Example 196, 1-((10-Hydroxy-7-(3-(trifluoromethyl)cyclopentane-1-carbonyl)-7-azaspiro[4.5]decan-10-yl)methyl)-N,N-dimethyl-6-oxo-4-phenyl-1,6-dihydropyridine-3-carboxamide]",5.30 to 6.30
2,"C[C@H](CC(=O)N1CCC(O)(Cn2cc(C(=O)N3CCNCC3)c(-c3ccccc3)cc2=O)CC1)c1ccccc1 [Example 94, (R)-1-((4-Hydroxy-1-(3-phenylbutanoyl)piperidin-4-yl)methyl)-4-phenyl-5-(piperazine-1-carbonyl)pyridin-2(1H)-one]",5.30 to 6.30
3,"C[C@H](CC(=O)N1CCC(O)(Cn2cnc(-c3ccsc3)cc2=O)CC1)c1ccccc1 [Example 22, (R)-3-((4-Hydroxy-1-(3-phenylbutanoyl)piperidin-4-yl)methyl)-6-(thiophen-3-yl)pyrimidin-4(3H)-one]",4.30 to 5.30
4,"CCCCC(CC)C(=O)N1CCC(O)(Cn2cc(C(=O)N(C)C(C)C)c(-c3ccccc3)cc2=O)CC1 (racemic) [Example 80, (R,S)-1-((1-(2-Ethylhexanoyl)-4-hydroxypiperidin-4-yl)methyl)-N-isopropyl-N-methyl-6-oxo-4-phenyl-1,6-dihydropyridine-3-carboxamide]",4.30 to 5.30
5,"C[C@H](CC(=O)N1CCC(O)(Cn2cnc(-c3ccccc3F)cc2=O)CC1)c1ccccc1 [Example 32, (R)-6-(2-Fluorophenyl)-3-((4-hydroxy-1-(3-phenylbutanoyl)piperidin-4-yl)methyl)pyrimidin-4(3H)-one]",4.30 to 5.30
6,"C[C@H](CC1CCCCC1)C(=O)N1CCC(O)(Cn2cc(C(=O)N(C)C)c(-c3ccc(CO)cc3)cc2=O)C2(CCCC2)C1 (stereo partly drawn) [Example 162, 1-((7-((R)-3-Cyclohexyl-2-methylpropanoyl)-10-hydroxy-7-azaspiro[4.5]decan-10-yl)methyl)-4-(4-(hydroxymethyl)phenyl)-N,N-dimethyl-6-oxo-1,6-dihydropyridine-3-carboxamide]",> 6.30
7,"CN(C)C(=O)c1cn(C[C@]2(O)CCN(C(=O)[C@H](CO)CC(F)(F)F)CC23CCCC3)c(=O)cc1-c1ccccc1 [Example 247, 1-(((S)-10-Hydroxy-7-((S)-4,4,4-trifluoro-2-(hydroxymethyl)butanoyl)-7-azaspiro[4.5]decan-10-yl)methyl)-N,N-dimethyl-6-oxo-4-phenyl-1,6-dihydropyridine-3-carboxamide]",> 6.30
8,"CC(C)N(C)C(=O)c1cn(CC2(O)CCN(C(=O)C3(C)CCCC3)CC2)c(=O)cc1-c1ccccc1F [Example 23, 4-(2-Fluorophenyl)-1-((4-hydroxy-1-(1-methylcyclopentane-1-carbonyl)piperidin-4-yl)methyl)-N-isopropyl-N-methyl-6-oxo-1,6-dihydropyridine-3-carboxamide]",4.30 to 5.30
9,"CC(CC(F)(F)F)C(=O)N1CCC(O)(Cn2cnc(-c3ccccc3F)cc2=O)C(C)(C)C1 (centres unmarked) [Example 143, 6-(2-Fluorophenyl)-3-((4-hydroxy-3,3-dimethyl-1-(4,4,4-trifluoro-2-methylbutanoyl)piperidin-4-yl)methyl)pyrimidin-4(3H)-one]",4.30 to 5.30
10,"CN(C)C(=O)c1cn(CC2(O)CCN(C(=O)C34CC(C3)C4)CC23CCCC3)c(=O)cc1-c1ccccc1 (centres unmarked) [Example 191, 1-((7-(Bicyclo[1.1.1]pentane-1-carbonyl)-10-hydroxy-7-azaspiro[4.5]decan-10-yl)methyl)-N,N-dimethyl-6-oxo-4-phenyl-1,6-dihydropyridine-3-carboxamide]",3.60 to 4.30
11,"O=C(CCC1CCCC1)N1CCC(O)(Cn2cnc(-c3ccccc3F)cc2=O)CC1 [Example 4, 3-((1-(3-Cyclopentylpropanoyl)-4-hydroxypiperidin-4-yl)methyl)-6-(2-fluorophenyl)pyrimidin-4(3H)-one]",3.60 to 4.30
12,"C[C@H](CC(F)(F)F)C(=O)N1CC[C@@](O)(Cn2cc(C(=O)N(C)C)c(-c3ccccc3F)cc2=O)C2(CCCC2)C1 [Example 223, 4-(2-Fluorophenyl)-1-(((S)-10-hydroxy-7-((R)-4,4,4-trifluoro-2-methylbutanoyl)-7-azaspiro[4.5]decan-10-yl)methyl)-N,N-dimethyl-6-oxo-1,6-dihydropyridine-3-carboxamide]",5.30 to 6.30
13,"CC(C)N(C)C(=O)c1cn(CC2(O)CCN(C(=O)C[C@@H](c3ccccc3)C(F)F)CC2)c(=O)cc1-c1ccccc1 [Example 71, (S)-1-((1-(4,4-Difluoro-3-phenylbutanoyl)-4-hydroxypiperidin-4-yl)methyl)-N-isopropyl-N-methyl-6-oxo-4-phenyl-1,6-dihydropyridine-3-carboxamide]",4.30 to 5.30
14,"CN(C)C(=O)c1cn(C[C@@]2(O)CCN(C(=O)[C@H](CCO)CC3CCCCC3)CC2(C)C)c(=O)cc1-c1ccccc1 [Example 165, 1-(((R)-1-((S)-2-(Cyclohexylmethyl)-4-hydroxybutanoyl)-4-hydroxy-3,3-dimethylpiperidin-4-yl)methyl)-N,N-dimethyl-6-oxo-4-phenyl-1,6-dihydropyridine-3-carboxamide]",4.30 to 5.30
15,"C[C@H](CC(=O)N1CCC(O)(Cn2cnc(-c3ccco3)cc2=O)CC1)c1ccccc1 [Example 26, (R)-6-(Furan-2-yl)-3-((4-hydroxy-1-(3-phenylbutanoyl)piperidin-4-yl)methyl)pyrimidin-4(3H)-one]",3.60 to 4.30
16,"C[C@H](CC1CCCCC1)C(=O)N1CCC(O)(Cn2cnc(-c3ccccc3F)cc2=O)C2(CCCC2)C1 (stereo partly drawn) [Example 119, 3-((7-((R)-3-Cyclohexyl-2-methylpropanoyl)-10-hydroxy-7-azaspiro[4.5]decan-10-yl)methyl)-6-(2-fluorophenyl)pyrimidin-4(3H)-one]",> 6.30
17,"C[C@H](CC1CCC1)C(=O)N1CCC(O)(Cn2cc(C(=O)N(C)C)c(-c3ccccc3)cc2=O)C(C)(C)C1 (stereo partly drawn) [Example 128, 1-((1-((R)-3-Cyclobutyl-2-methylpropanoyl)-4-hydroxy-3,3-dimethylpiperidin-4-yl)methyl)-N,N-dimethyl-6-oxo-4-phenyl-1,6-dihydropyridine-3-carboxamide]",5.30 to 6.30
18,"CN(C)C(=O)c1cn(CC2(O)CCN(C(=O)C3CCC(F)(F)C3)CC23CCCC3)c(=O)cc1-c1ccccc1 (centres unmarked) [Example 202, 1-((7-(3,3-Difluorocyclopentane-1-carbonyl)-10-hydroxy-7-azaspiro[4.5]decan-10-yl)methyl)-N,N-dimethyl-6-oxo-4-phenyl-1,6-dihydropyridine-3-carboxamide]",3.60 to 4.30

# Continued, values first:
row,pIC50,Compound
1,5.30 to 6.30,"C[C@H](CC(=O)N1CCC(O)(Cn2cc(C(=O)N3CCC(O)CC3)c(-c3ccccc3)cc2=O)CC1)c1ccccc1 [Example 62, (R)-1-((4-Hydroxy-1-(3-phenylbutanoyl)piperidin-4-yl)methyl)-5-(4-hydroxypiperidine-1-carbonyl)-4-phenylpyridin-2(1H)-one]"
2,4.30 to 5.30,"C[C@H](CC1CCCCC1)C(=O)N1CCC(O)(Cn2cc(C(=O)N(C)C)c(-c3ccccc3CN)cc2=O)C2(CCCC2)C1 (stereo partly drawn) [Example 161, 4-(2-(Aminomethyl)phenyl)-1-((7-((R)-3-cyclohexyl-2-methylpropanoyl)-10-hydroxy-7-azaspiro[4.5]decan-10-yl)methyl)-N,N-dimethyl-6-oxo-1,6-dihydropyridine-3-carboxamide]"
3,> 6.30,"C[C@H](CC1CCCCC1)C(=O)N1CCC(O)(Cn2cc(C(=O)N3CCNCC3)c(-c3ccccc3)cc2=O)C2(CCCCC2)C1 (stereo partly drawn) [Example 238, 1-((2-((R)-3-Cyclohexyl-2-methylpropanoyl)-5-hydroxy-2-azaspiro[5.5]undecan-5-yl)methyl)-4-phenyl-5-(piperazine-1-carbonyl)pyridin-2(1H)-one]"
4,4.30 to 5.30,"CC(OC1CCCCC1)C(=O)N1CCC(O)(Cn2cc(C(=O)N(C)C)c(-c3ccccc3)cc2=O)C2(CCCC2)C1 (centres unmarked) [Example 199, 1-((7-(2-(Cyclohexyloxy)propanoyl)-10-hydroxy-7-azaspiro[4.5]decan-10-yl)methyl)-N,N-dimethyl-6-oxo-4-phenyl-1,6-dihydropyridine-3-carboxamide]"
5,3.60 to 4.30,"CC1(C)CN(C(=O)CCC2CC2)CCC1(O)Cn1cnc(-c2ccccc2F)cc1=O (racemic) [Example 83, (R,S)-3-((1-(3-Cyclopropylpropanoyl)-4-hydroxy-3,3-dimethylpiperidin-4-yl)methyl)-6-(2-fluorophenyl)pyrimidin-4(3H)-one]"
6,3.60 to 4.30,"O=C(C(F)CC1CCCCC1)N1CCC(O)(Cn2cnc(-c3ccccc3F)cc2=O)CC1 (racemic) [Example 49, (R,S)-3-((1-(3-Cyclohexyl-2-fluoropropanoyl)-4-hydroxypiperidin-4-yl)methyl)-6-(2-fluorophenyl)pyrimidin-4(3H)-one]"
7,4.30 to 5.30,"C[C@H](CC1CCCCC1)C(=O)N1CC[C@](O)(Cn2cc(C(=O)N3CCNCC3)c(-c3ccccc3)cc2=O)C2(CCCC2)C1 [Example 210, 1-(((R)-7-((R)-3-Cyclohexyl-2-methylpropanoyl)-10-hydroxy-7-azaspiro[4.5]decan-10-yl)methyl)-4-phenyl-5-(piperazine-1-carbonyl)pyridin-2(1H)-one]"
8,4.30 to 5.30,C[C@H](CC(=O)N1C[C@H]2CC[C@@H](C1)C2(O)Cn1cnc(-c2ccccc2F)cc1=O)c1ccccc1 (some centres unmarked) [Example 60]
9,4.30 to 5.30,"C[C@H](CC(=O)N1CCC(O)(Cn2cc(-c3ccccc3C#N)c(-c3ccccc3)cc2=O)CC1)c1ccccc1 [Example 106, (R)-2-(1-((4-Hydroxy-1-(3-phenylbutanoyl)piperidin-4-yl)methyl)-6-oxo-4-phenyl-1,6-dihydropyridin-3-yl)benzonitrile]"
10,4.30 to 5.30,"C=C1CCC(C)(C(=O)N2CCC(O)(Cn3cnc(-c4ccccc4F)cc3=O)CC2)CC1 [Example 56, 6-(2-Fluorophenyl)-3-((4-hydroxy-1-(1-methyl-4-methylenecyclohexanecarbonyl)piperidin-4-yl)methyl)pyrimidin-4(3H)-one]"
11,> 6.30,"C[C@H](CC1CCCCC1)C(=O)N1CCC(O)(Cn2cnc(-c3cccc(CO)c3)cc2=O)C(C)(C)C1 (stereo partly drawn) [Example 138, 3-((1-((R)-3-Cyclohexyl-2-methylpropanoyl)-4-hydroxy-3,3-dimethylpiperidin-4-yl)methyl)-6-(3-(hydroxymethyl)phenyl)pyrimidin-4(3H)-one]"
